Each structure is given as a SMILES string.

In turn, `Cc1ccccc1CCC(c1cc(F)ccc1F)S(=O)(=O)c1ccc(Cl)cc1` (stereo not drawn) [Example 305, 2-[1-(4-Chlorophenylsulfonyl)-3-(2-methylphenyl)propyl]-1,4-difluorobenzene] had a melting point of 105 to 106 °C. In the case of `O=S(=O)(c1ccc(Cl)cc1)C(CCc1ccccc1)c1cc(F)ccc1F` (stereo not drawn) [Example 304, 2-[1-(4-Chlorophenylsulfonyl)-3-phenylpropyl]-1,4-difluorobenzene] it was 111 to 113 °C; in that of `CS(=O)(=O)CCCCC(c1c(F)cccc1F)S(=O)(=O)c1ccc(Cl)cc1` (stereo not drawn) [Example 81, 2-[1-(4-Chlorophenylsulfonyl)-5-(methylsulfonyl)pentyl]-1,3-difluorobenzene], 118 to 119 °C; in that of `O=S(=O)(c1ccc(Cl)cc1)C(CCc1ccccn1)c1cc(F)ccc1F` (stereo not drawn) [Example 318, 2-[3-(4-chlorophenylsulfonyl)-3-(2,5-difluorophenyl)propyl]pyridine], 129 to 131 °C. In the case of `CCOC(=O)C(=O)NCc1ccc(C(c2cc(F)ccc2F)S(=O)(=O)c2ccc(Cl)cc2)nc1` (stereo not drawn) [Example 357, Ethyl 2-[[6-[(4-chlorophenylsulfonyl)(2,5-difluorophenyl)methyl]pyridin-3-yl]methylamino]-2-oxoacetate] it was 193 to 194 °C; in that of `O=C(OC(=C(c1cc(F)ccc1F)S(=O)(=O)c1ccc(Cl)cc1)c1ccccc1)c1ccccc1` [Example 9, 2-[(4-Chlorophenyl)sulfonyl]-2-(2,5-difluorophenyl)-1-phenylethenyl benzoate], 224.5 to 227 °C; in that of `O=S(=O)(c1ccc(Cl)cc1)C(Cc1ccccc1CO)c1cc(F)ccc1F` (stereo not drawn) [Example 277, [2-[2-[(4-Chlorophenyl)sulfonyl]-2-(2,5-difluorophenyl)ethyl]phenyl]methanol], 107 to 108 °C. In turn, `CS(=O)(=O)CCCCC(c1ccc2ccccc2c1)S(=O)(=O)c1ccc(Cl)cc1` (stereo not drawn) [Example 67, 2-[1-[(4-Chlorophenyl)sulfonyl]-5-(methylsulfonyl)pentyl]naphthalene] registered a melting point of 146 to 147 °C. As to `O=S(=O)(c1ccc(Cl)cc1)C1(c2nnnn2Cc2ccccc2)CCCCC1` [Example 195, 1-Benzyl-5-[1-(4-chlorobenzenesulfonyl)cyclohexyl]-1H-tetrazole], the melting point fell in the range of 154 to 155 °C. In the case of `O=S(=O)(c1ccc(Cl)cc1)C(CCn1cccc1)c1cc(F)ccc1F` (stereo not drawn) [Example 297, 1-[3-[(4-Chlorophenyl)sulfonyl]-3-(2,5-difluorophenyl)propyl]-1H-pyrrole] it was 108 to 113 °C. Under `O=S(=O)(c1ccc(Cl)cc1)C(c1ccc[n+]([O-])c1)c1cc(F)ccc1F` (stereo not drawn) [Example 339, 3-[(4-Chlorophenylsulfonyl)-(2,5-difluorophenyl)methyl]pyridin-N-oxide] stands 183 to 184 °C; under `C=CCOc1cccnc1C(c1cc(F)ccc1F)S(=O)(=O)c1ccc(Cl)cc1` (stereo not drawn) [Example 140, 3-Allyloxy-2-[[(4-chlorophenyl)sulfonyl]-(2,5-difluorophenyl)methyl]pyridine], 119 to 120 °C.

Regarding `O=S(=O)(c1ccc(Cl)cc1)C(CCc1ccc(Br)cc1)c1cc(F)ccc1F` (stereo not drawn) [Example 311, 2-[3-(4-Bromophenyl)-1-(4-chlorophenylsulfonyl)propyl]-1,4-difluorobenzene], the melting point was in the range of 122 to 124 °C. In the case of `O=S(=O)(c1ccc(Cl)cc1)C(c1ccncc1)C1CCCC1` (stereo not drawn) [Example 121, 4-[(4-Chlorophenylsulfonyl)(cyclopentyl)methyl]pyridine] it was 133 to 135 °C; in that of `CC1(C)COC(CCC(c2cc(F)ccc2F)S(=O)(=O)c2ccc(Cl)cc2)OC1` (stereo not drawn) [Example 321, 2-[3-(4-Chlorophenylsulfonyl)-3-(2,5-difluorophenyl)propyl]-5,5-dimethyl-1,3-dioxane], 69 to 71 °C. Under `O=S(=O)(c1ccc(Cl)cc1)C(CCCc1ccccc1)c1cc(F)ccc1F` (stereo not drawn) [Example 312, 2-[1-(4-Chlorophenylsulfonyl)-4-phenylbutyl]-1,4-difluorobenzene] stands 107 to 108 °C; under `O=S(=O)(c1ccc(Cl)cc1)C(c1cc(F)ccc1F)C(O)CCCCO` (stereo not drawn) [Example 235, 6-[(4-Chlorophenyl)sulfonyl]-6-(2,5-difluorophenyl)-1,5-hexanediol], 108 to 109 °C; under `CS(=O)(=O)CCCCC(c1cnco1)S(=O)(=O)c1ccc(Cl)cc1` (stereo not drawn) [Example 118, 5-[1-(4-Chlorophenylsulfonyl)-5-(methylsulfonyl)pentyl]oxazole], 164 to 166 °C. Under `COc1ccc(CCC(c2cc(F)ccc2F)S(=O)(=O)c2ccc(Cl)cc2)cc1` (stereo not drawn) [Example 308, 2-[1-(4-Chlorophenylsulfonyl)-3-(4-methoxyphenyl)propyl]-1,4-difluorobenzene] stands 118 to 120 °C; under `CCCC(O)C(c1cc(F)ccc1F)S(=O)(=O)c1ccc(Cl)cc1` (stereo not drawn) [Example 11, 1-[(4-Chlorophenyl)sulfonyl]-1-(2,5-difluorophenyl)-2-pentanol], 76.5 to 78 °C. Consider `O=S(=O)(c1ccc(Cl)cc1)C(c1cc(F)ccc1F)C(O)CCCCO` (stereo not drawn) [Example 236, 6-[(4-Chlorophenyl)sulfonyl]-6-(2,5-difluorophenyl)-1,5-hexanediol], for which the melting point is 105 to 107 °C. Under `CS(=O)(=O)CCCCC(c1cc(F)cc(F)c1)S(=O)(=O)c1ccc(Cl)cc1` (stereo not drawn) [Example 72, 1-[1-[(4-Chlorophenyl)sulfonyl]-5-(methylsulfonyl)pentyl]-3,5-difluorobenzene] stands 126 to 127 °C; under `CS(=O)(=O)CCCCC(c1cc(Cl)ccc1F)S(=O)(=O)c1ccc(Cl)cc1` (stereo not drawn) [Example 79, 4-Chloro-2-[1-(4-chlorophenylsulfonyl)-5-(methylsulfonyl)pentyl]-1-fluorobenzene], 116 to 117 °C. Under `O=C(OCCC(c1cc(F)ccc1F)S(=O)(=O)c1ccc(Cl)cc1)N1CCCC1` (stereo not drawn) [Example 208, 3-[(4-Chlorophenyl)sulfonyl]-3-(2,5-difluorophenyl)propyl=1-pyrrolidinecarboxylate] stands 109 to 110 °C; under `O=C(c1ccccn1)N1CCC(c2cc(F)ccc2F)(S(=O)(=O)c2ccc(Cl)cc2)CC1` [Example 266, [4-[(4-Chlorophenyl)sulfonyl]-4-(2,5-difluorophenyl)piperidino](2-pyridyl)methanone], 193 to 196 °C. In the case of `CCCC(=O)C(c1cc(F)ccc1F)S(=O)(=O)c1ccc(Cl)cc1` (stereo not drawn) [Example 7, 1-[(4-Chlorophenyl)sulfonyl]-1-(2,5-difluorophenyl)-2-pentanone] it was 85.5 to 86 °C.

For the compound `CC(CCCO)C(c1cc(F)ccc1F)S(=O)(=O)c1ccc(Cl)cc1` (stereo not drawn) [Example 40, 5-[(4-Chlorophenyl)sulfonyl]-5-(2,5-difluorophenyl)-4-methyl-1-pentanol], the melting point is 67 to 69 °C.

With `O=S(=O)(c1ccc(Cl)cc1)C(c1ccc(CN2CCOCC2)cn1)c1cc(F)ccc1F` (stereo not drawn) [Example 337, 4-[[6-[(4-Chlorophenylsulfonyl)-(2,5-difluorophenyl)methyl]pyridin-3-yl]methyl]morpholine], the melting point was in the range of 120 to 121 °C. In the case of `Cl.O=S(=O)(c1ccc(Cl)cc1)C1(c2cc(F)ccc2F)CCNCC1` it was 239 to 246 °C (dec.); in that of `Fc1ccc(F)c(C(Sc2ccc(Cl)cc2)c2cc(Cl)ncc2Cl)c1` (stereo not drawn) [Example 342, 2,5-Dichloro-4-[(4-chlorophenylthio)-(2,5-difluorophenyl)methyl]pyridine], 128 to 129 °C; in that of `O=S(=O)(c1ccc(Cl)cc1)C(c1nccs1)c1cc(F)ccc1F` (stereo not drawn) [Example 152, 2-[[(4-Chlorophenyl)sulfonyl]-(2,5-difluorophenyl)methyl]thiazole], 163 to 164 °C.

`CC(=O)N1CCC(c2cc(F)ccc2F)(S(=O)(=O)c2ccc(Cl)cc2)CC1` [Example 263, 1-[4-[(4-Chlorophenyl)sulfonyl]-4-(2,5-difluorophenyl)piperidino]-1-ethanone] returned a melting point of 159 to 160 °C. Under `O=S(=O)(c1ccc(Cl)cc1)C(Cc1ccccn1)c1cc(F)ccc1F` (stereo not drawn) [Example 218, 2-[2-[(4-Chlorophenyl)sulfonyl]-2-(2,5-difluorophenyl)ethyl]pyridine] stands 105 to 107 °C; under `Cl.NCCCC(c1cc(F)ccc1F)S(=O)(=O)c1ccc(Cl)cc1` (stereo not drawn), 232 to 233 °C. Under `Cl.O=S(=O)(c1ccc(Cl)cc1)C(c1cc(F)ccc1F)C1CCNCC1` (stereo not drawn) stands 184 to 190 °C; under `O=C(CCC(c1cc(F)ccc1F)S(=O)(=O)c1ccc(Cl)cc1)N1CCCC1` (stereo not drawn) [Example 201, 4-[(4-Chlorophenyl)sulfonyl]-4-(2,5-difluorophenyl)-1-(1-pyrrolildinyl)-1-butanone], 134 to 135 °C. In the case of `CN(C)CC(=O)NCc1ccc(C(c2cc(F)ccc2F)S(=O)(=O)c2ccc(Cl)cc2)nc1` (stereo not drawn) [Example 359, N-[[6-[(4-Chlorophenylsulfonyl)(2,5-difluorophenyl)methyl]pyridin-3-yl]methyl]-2-dimethylaminoacetamide] it was 177 to 179 °C. Take `CS(=O)(=O)CCCCC(c1ccccc1F)S(=O)(=O)c1ccc(Cl)cc1` (stereo not drawn) [Example 53, 1-[1-[(4-Chlorophenyl)sulfonyl]-5-(methylsulfonyl)pentyl]-2-fluorobenzene]: the melting point was in the range of 167 to 168 °C.

As for `CS(=O)(=O)NCCCCC(c1cc(F)ccc1F)S(=O)(=O)c1ccc(Cl)cc1` (stereo not drawn) [Example 242, N-[5-[(4-Chlorophenyl)sulfonyl]-5-(2,5-difluorophenyl)pentyl]methanesulfonamide], the melting point was 106 to 107 °C. Under `CS(=O)(=O)CCCCC(c1ccccc1)S(=O)(=O)c1ccc(Cl)cc1` (stereo not drawn) [Example 51, 1-Chloro-4-(5-methylsulfonyl-1-phenylpentyl)sulfonylbenzene] stands 151 to 152 °C. In turn, `Cl.O=S(=O)(c1ccc(Cl)cc1)C(CCNCCO)c1cc(F)ccc1F` (stereo not drawn) registered a melting point of 216 to 220 °C. In the case of `O=S(=O)(c1ccc(Cl)cc1)C(Cc1ccccc1)c1cc(F)ccc1F` (stereo not drawn) [Example 217, 2-[1-[(4-Chlorophenyl)sulfonyl]-2-phenylethyl]-1,4-difluorobenzene] it was 160 to 161 °C.

The record behind these values is patent US7399775B2, “β-amyloid protein production/secretion inhibitor” (Daiichi Pharmaceutical Co., Ltd., priority 2001, dated 2008).
